Data as given in patent US7514251B2, “O-methyltransferases of tetrahydrobenzylisoquinoline alkaloid biosynthesis in Papaver somniferum” (priority 2003, dated 2009).
Like-named read-outs stand apart in the source and are kept apart here. Marks after values point to notes of the source that are not given here.

Legend:
Type in all cases: biochemical
[1] = target: T1, PSOMT2 ((R,S)-norcoclaurine 6-O-methyltransferase) (Papaver somniferum, UniProt Q6WUC1); test: HPLC-MS identification of enzymic products of PSOMT2; details: HPLC-MS of enzymic product
T1 construct: The full-length cDNA generated by RT-PCR was ligated into pFastBac HTa; His6 (N); made in house; host or cells: Spodoptera frugiperda Sf9 (baculovirus, pFastBac HTa)
T1 sequence (Q6WUC1 1-346): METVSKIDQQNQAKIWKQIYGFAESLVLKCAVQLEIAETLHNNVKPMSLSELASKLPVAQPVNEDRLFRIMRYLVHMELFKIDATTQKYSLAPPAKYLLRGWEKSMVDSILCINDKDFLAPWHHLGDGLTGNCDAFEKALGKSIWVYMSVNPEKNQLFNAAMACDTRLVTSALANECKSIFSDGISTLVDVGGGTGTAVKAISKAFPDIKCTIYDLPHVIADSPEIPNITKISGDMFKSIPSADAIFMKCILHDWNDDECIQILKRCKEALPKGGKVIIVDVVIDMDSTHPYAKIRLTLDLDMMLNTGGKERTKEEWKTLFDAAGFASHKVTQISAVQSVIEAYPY
Description: (§1) The identity of the enzymic reaction products was ascertained by HPLC-MS using a Finnigan MAT TSQ 7000 (electrospray voltage 4.5 kV, capillary temperature 220° C., carrier gas N2) coupled to a Micro-tech Ultra-Plus Micro-LC equipped with an Ultrasep RP18 column; 5 μm; 1×10 mm), Solvent system (A) 99.8% (v/v) H2O, 0.2% HOAc (B) 99.8% CH3CN (v/v), 0.2% HOAc; gradient: 0-15 min 10-90% B, 15-25 min 90% B; flow 70 μl min^−1). The collision-induced dissociation (CID; collision energy, −25 eV; collision gas, argon; collision pressure, 1.8×10^−3 Torr) mass spectra for the tetrahydrobenzylisoquinoline alkaloids were recorded.
(§2) Structure Elucidation of Enzymic Products—Initial enzyme activity measurements were carried out using a radioassay. Many of the substrates tested contained more than one site of potential methylation. […] Tetrahydrobenzylisoquinolines readily cleave at low ionization energies into the corresponding isoquinoline- and benzyl ions. This enables identification of methylation at either moiety. Each alkaloidal substrate was monitored for purity by HLPC-MS and the fragmentation pattern was determined. Enzymic product fragmentation patterns were then compared to those of substrate. All substrates were methylated by either PSOMT1 or PSOMT2 on the isoquinoline moiety. For example, (R)- or (S)-reticuline ([M+H]^+ m/z 330) has the major fragment ions m/z 192 (isoquinoline) and m/z 137 (benzyl). The methylation of (R)- or (S)-reticuline by PSOMT1 results in a product of [M+H]^+ m/z 344 (methylated (R)- or (S)-reticuline) with fragment ions at m/z 206 (isoquinoline+CH2) and m/z 137 (unmodified benzyl). Likewise, (R,S)-norcoclaurine ([M+H]^+ m/z 272) has the major fragment ions m/z 161 (isoquinoline) and m/z 107 (benzyl). The methylation of (R,S)-norcoclaurine by PSOMT2 results in a product of [M+H]^+ m/z 286 (methylated (R,S)-norcoclaurine) with fragment ions at m/z 175 (isoquinoline+CH2) and m/z 107 (unmodified benzyl).

[2] = target: T2, PSOMT1 ((R,S)-reticuline 7-O-methyltransferase) (Papaver somniferum, UniProt Q6WUC2); details: for Substrate specificity, relative activity of PSOMT1: 100% activity = 1.5 pmoles/sec/mg total protein, radioassay; for Vmax Substrate / kcat Substrate / pH optimum of methylation / ratio kcat/Km / Km / temperature optimum: PSOMT1; for methylated by PSOMT1 (radioassay, in words): one of forty substrates tested
T2 construct: The full-length cDNA generated by RT-PCR was ligated into pFastBac HTa; His6 (N); made in house; host or cells: Spodoptera frugiperda Sf9 (baculovirus, pFastBac HTa)
Excerpt: (§3) Heterologous Expression and Enzyme Purification—The full-length cDNA generated by RT-PCR was ligated into pFastBac HTa that had been digested with restriction endonucleases BamHI and NotI. The recombinant plasmid was transposed into baculovirus DNA in the Escherichia coli strain DH10BAC (Life Technologies) and then transfected into Spodoptera frugiperda Sf9 cells according to the manufacturer's instructions. The insect cells were propagated and the recombinant virus was amplified according to (16,17). INSECT-XPRESS serum-free medium (Bio Whittaker) was used in the enzyme expression experiments.
(§4) After infection of 20 ml suspension grown insect cells had proceded for 3-4 days at 28° C. and 130 rpm, the cells were removed by centrifugation under sterile conditions at 900× g for 5 min at 4° C. All subsequent steps were performed at 4° C. The pellet was discarded and to the medium was added 0.73 g NaCl, 2.5 ml glycerol and 50 μl […]-mercaptoethanol. The pH was adjusted to 7.0 with 1.0 M NaOH. The His-tagged O-methyltransferase was then purified by affinity chromatography using a cobalt resin (Talon, Clontech) according to the manufacturer's instructions.
(§5) Enzyme assay and product identification: The O-methylation reactions catalysed by the two O-methyltransferases were assayed at least two times in duplicate according to Rüffer et al. (1983a; 1983b) as follows. Substrate (25 nmol), [methyl-3H]-AdoMet (20,000 dpm, 0.4 fmol), AdoMet (10 nmol) Tris/HC1 buffer pH 8.0 (10 μmol), ascorbate (5 μmol) and 5-10 μg of enzyme were incubated in a total volume of 150 μl at 35° C. for 5-60 min. The enzymic reaction was terminated by addition of 200 μl ethylacetate. The organic phase ([…]) was added to 3 ml high flash point liquid scintillation cocktail (Packard) and the radioactivity quantified with a Beckman LS6000TA liquid scintillation counter.
(§6) General Methods—Total RNA was isolated and RNA gels were run and blotted as described previously (20). Genomic DNA was isolated and DNA gels were run and blotted according to (21). cDNA clones were labeled by PCR labeling with [[…]-^32P]dATP. Hybridized RNA on RNA gel blots and DNA on DNA gel blots were visualized with a STORM phosphor imager (Molecular Dynamics). The entire nucleotide sequence on both DNA strands of the full-length clone was determined by dideoxy cycle sequencing using internal DNA sequences for the design of deoxyoligonucleotides as sequencing primers. Saturation curves and double reciprocal plots were constructed with the Fig. P program Version 2.7 (Biosoft, Cambridge, UK). The influence of pH on enzyme activity was monitored in sodium citrate (pH 4-6), sodium phosphate (pH 6-7.0) and Tris-HCl (pH 7.0-9), glycine/NaOH (pH 9-10.5) buffered solutions.

[3] = target: T1, PSOMT2 ((R,S)-norcoclaurine 6-O-methyltransferase); test: Radioassay of recombinant PSOMT2 with [methyl-3H]-AdoMet (substrate specificity, kinetics, pH and temperature optima); details: for Substrate specificity, relative activity of PSOMT2: 100% activity = 2.0 pmoles/sec/mg total protein, radioassay; for Vmax Substrate / kcat Substrate / pH optimum of methyl transfer / Km / kcat/Km ratio relative to that obtained for (R,S)-norcoclaurine: PSOMT2; for methylated by PSOMT2 (radioassay, in words): one of forty substrates tested
Excerpt: as §3, §4, §5, §6

[4] = target: T2, PSOMT1 ((R,S)-reticuline 7-O-methyltransferase); test: HPLC-MS identification of enzymic products of PSOMT1; details: for position of O-methylation by PSOMT1: HPLC-MS of enzymic product
Description: as §1, §2

[5] = co-substrate AdoMet with the named substrate, read-out: Km AdoMet

T2 sequence (Q6WUC2 whole entry): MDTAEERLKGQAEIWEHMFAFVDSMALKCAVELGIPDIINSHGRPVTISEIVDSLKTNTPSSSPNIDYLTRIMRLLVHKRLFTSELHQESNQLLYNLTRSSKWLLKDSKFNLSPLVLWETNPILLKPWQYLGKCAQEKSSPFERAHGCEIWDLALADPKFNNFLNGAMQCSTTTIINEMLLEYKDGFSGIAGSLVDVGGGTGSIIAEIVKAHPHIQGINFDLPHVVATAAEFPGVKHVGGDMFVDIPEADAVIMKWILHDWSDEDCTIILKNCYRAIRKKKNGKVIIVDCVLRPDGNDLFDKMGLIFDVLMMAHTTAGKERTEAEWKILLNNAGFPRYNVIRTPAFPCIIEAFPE

| SMILES | position of O-methylation by PSOMT2 [1] | Substrate specificity, relative activity of PSOMT1 [2] | Vmax Substrate [2] | kcat Substrate [2] | pH optimum of methylation [2] | ratio kcat/Km [2] | Km [2, 5] | Km ([2]; read-out: Km Substrate) | methylated by PSOMT1 (radioassay, in words) [2] | Substrate specificity, relative activity of PSOMT2 [3] | Vmax Substrate [3] | kcat Substrate [3] | pH optimum of methyl transfer [3] | Km [3, 5] | Km ([3]; read-out: Km Substrate) | methylated by PSOMT2 (radioassay, in words) [3] | position of O-methylation by PSOMT1 [4] | share of product that is double methylated 7,4′-O-dimethylorientaline (laudanosine) and monomethylated 4′-O-methylorientaline ([4]; PSOMT1, main product 7-O-methylorientaline) | kcat/Km ratio relative to that obtained for (R,S)-norcoclaurine [3] | temperature optimum [2] |
| --- | --- | --- | --- | --- | --- | --- | --- | --- | --- | --- | --- | --- | --- | --- | --- | --- | --- | --- | --- | --- |
| COc1cc(CC2c3cc(OC)c(O)cc3CCN2C)ccc1O (racemic) [(R,S)-Isoorientaline] | at C-6 | 46% | 1 pmol/s | 0.02 s⁻¹ | 7.5-9.0 | 1440 M⁻¹ s⁻¹ | 260 µM | 17 µM | methylates | 47% | 2 pmol/s | 0.03 s⁻¹ | 7.5 | 280 µM | 29 µM | methylating | O-methylated by PSOMT1 at C-6 | – | – | – |
| COc1cc(C[C@@H]2c3cc(O)c(OC)cc3CCN2C)ccc1O (racemic) [(R,S)-Orientaline] | – | 48% | – | – | – | – | – | – | methylates | 0% | – | – | – | – | – | – | O-methylated at C-7 | Approximately 1% | – | – |
| COc1ccc(C[C@H]2NCCc3cc(O)c(OC)cc32)cc1O [(R)-Norprotosinomenine] | at C-6 | 0% | – | – | – | – | – | – | – | 26% | 1 pmol/s | 0.02 s⁻¹ | 7.5 | 200 µM | 5 µM | methylating | – | – | 55% | – |
| COc1ccc(C[C@@H]2c3cc(OC)c(O)cc3CCN2C)cc1O [(R)-Protosinomenine] | – | 52% | 2 pmol/s | 0.03 s⁻¹ | 9.0 | 1670 M⁻¹ s⁻¹ | 320 µM | 16 µM | methylates | 0% | – | – | – | – | – | – | O-methylated by PSOMT1 at C-6 | – | – | 39 °C |
| COc1ccc(C[C@@H]2c3cc(O)c(OC)cc3CCN2C)cc1O [(R)-Reticuline] | – | 100^a % | 4 pmol/s | 0.07 s⁻¹ | 8.0 | 4200 M⁻¹ s⁻¹ | 310 µM | 17 µM | methylates | 0% | – | – | – | – | – | – | O-methylated at C-7 | – | – | 37 °C |
| COc1ccc(C[C@@H]2NCCc3cc(O)c(OC)cc32)cc1O [(S)-Norprotosinomenine] | at C-6 | 0% | – | – | – | – | – | – | – | 26% | 1 pmol/s | 0.02 s⁻¹ | 7.5 | 260 µM | 5 µM | methylating | – | – | 55% | – |
| COc1ccc(C[C@H]2c3cc(O)c(OC)cc3CCN2C)cc1O [(S)-Reticuline] | – | 100^a % | 4 pmol/s | 0.07 s⁻¹ | 8.0 | 4500 M⁻¹ s⁻¹ | 360 µM | 16 µM | methylates | 0% | – | – | – | – | – | – | O-methylated at C-7 | – | – | 37 °C |
